In patent US10399940B2, “Substituted pyrrolidines and methods of use” (AbbVie S.à.r.l., priority 2016, dated 2019):
Read-outs that look alike come from different tables or passages of the source.

Target: T1, F508delCFTR (Homo sapiens, UniProt P13569, DEL508-508)
T1 construct: expressed in transfected cells; host or cells: CFBE41o- (human lung derived epithelial cell line), doxycycline-inducible expression
Test: Cell Surface Expression-Horse Radish Peroxidase (CSE-HRP) assay
Assay type: cell-based
Conditions: CFBE41o-F508delCFTR-HRP cells; for Maximum % activity (with co-corrector): with co-corrector (2 μM); for Maximum % activity (with co-corrector) / Maximum % activity (without co-corrector): normalized to on-plate positive control, highest concentration 20 μM
Procedure, shortened: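 CFBE41o- cells expressed F508delCFTR with HRP in the fourth exofacial loop, induced by 0.5 μg/mL doxycycline for 72 h at 37 °C. Compounds alone or with 2 μM co-corrector ran 18–24 h at 33 °C, 8-point 3-fold from 20 μM. Washed-cell luminol luminescence was normalized to DMSO and positive control, fitted sigmoidally for EC50 (three plates).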

[1] = test compound without co-corrector, 18-24 hours at 33° C., read-out: EC50 (without co-corrector)
[2] = with co-corrector (2 μM of 3-[(2R,4R)-4-({[1-(2,2-difluoro-1,3-benzodioxol-5-yl)cyclopropyl]carbonyl}amino)-7-methoxy-3,4-dihydro-2H-chromen-2-yl]benzoic acid), read-out: EC50 (with co-corrector)

T1 sequence (P13569 with tags, fused parts or gaps DEL508-508): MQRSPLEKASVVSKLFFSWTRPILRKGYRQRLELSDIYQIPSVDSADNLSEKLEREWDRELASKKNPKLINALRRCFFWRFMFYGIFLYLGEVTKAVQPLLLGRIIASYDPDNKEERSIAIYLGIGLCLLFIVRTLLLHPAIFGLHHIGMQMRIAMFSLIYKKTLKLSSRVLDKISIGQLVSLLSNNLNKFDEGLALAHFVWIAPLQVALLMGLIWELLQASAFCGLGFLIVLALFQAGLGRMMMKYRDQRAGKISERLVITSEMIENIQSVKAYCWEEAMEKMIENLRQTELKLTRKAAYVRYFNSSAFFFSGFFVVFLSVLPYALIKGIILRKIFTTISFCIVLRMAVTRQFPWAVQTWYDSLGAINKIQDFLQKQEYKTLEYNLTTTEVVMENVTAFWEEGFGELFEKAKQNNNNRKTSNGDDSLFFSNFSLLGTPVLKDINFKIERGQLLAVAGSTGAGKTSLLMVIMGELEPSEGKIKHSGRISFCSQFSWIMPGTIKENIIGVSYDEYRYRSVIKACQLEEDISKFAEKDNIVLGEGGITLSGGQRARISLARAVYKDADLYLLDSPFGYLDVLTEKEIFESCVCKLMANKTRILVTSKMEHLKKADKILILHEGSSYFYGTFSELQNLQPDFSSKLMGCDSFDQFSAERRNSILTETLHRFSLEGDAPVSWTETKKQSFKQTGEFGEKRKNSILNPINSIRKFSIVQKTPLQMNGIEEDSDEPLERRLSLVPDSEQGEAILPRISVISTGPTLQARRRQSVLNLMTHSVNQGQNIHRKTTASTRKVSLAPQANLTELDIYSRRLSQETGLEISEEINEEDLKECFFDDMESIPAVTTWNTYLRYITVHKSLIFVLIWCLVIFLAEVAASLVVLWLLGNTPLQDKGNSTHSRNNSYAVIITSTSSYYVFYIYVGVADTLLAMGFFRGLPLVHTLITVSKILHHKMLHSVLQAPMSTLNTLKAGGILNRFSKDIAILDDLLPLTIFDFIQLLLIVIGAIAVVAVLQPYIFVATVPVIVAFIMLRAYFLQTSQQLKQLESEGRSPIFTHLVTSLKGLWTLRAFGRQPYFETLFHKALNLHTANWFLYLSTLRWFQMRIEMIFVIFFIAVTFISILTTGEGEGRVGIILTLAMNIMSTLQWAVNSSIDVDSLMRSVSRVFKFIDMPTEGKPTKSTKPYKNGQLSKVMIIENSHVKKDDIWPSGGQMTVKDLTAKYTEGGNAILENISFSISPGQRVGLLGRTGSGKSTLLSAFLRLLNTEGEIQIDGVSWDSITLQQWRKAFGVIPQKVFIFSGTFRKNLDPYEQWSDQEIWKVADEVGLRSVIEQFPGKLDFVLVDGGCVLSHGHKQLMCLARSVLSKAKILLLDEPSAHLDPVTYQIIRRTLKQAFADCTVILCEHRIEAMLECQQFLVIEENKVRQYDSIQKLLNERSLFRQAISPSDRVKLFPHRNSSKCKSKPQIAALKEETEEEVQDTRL

Row | SMILES | EC50 [1] | EC50 [2] | Maximum % activity (with co-corrector) | Maximum % activity (without co-corrector)
1 | COc1ncc(C(F)(F)F)cc1CO[C@H]1[C@H](C(C)(C)C)[C@@H](C(=O)O)N(C(=O)OC(C)C)[C@H]1c1cccc(Cl)c1 [Example 79, (2S,3R,4S,5S)-3-tert-butyl-5-(3-chlorophenyl)-4-{[2-methoxy-5-(trifluoromethyl)pyridin-3-yl]methoxy}-1-{[(propan-2-yl)oxy]carbonyl}pyrrolidine-2-carboxylic acid] | 1000 to 10000 nM | 1000 to 10000 nM | ++ (≥150 and <350) | + (<100)
2 | COc1ncc(C(C)(C)C)cc1CO[C@H]1[C@H](C(C)(C)C)[C@@H](C(=O)O)N(C(=O)OC(C)C)[C@H]1c1cccc(Cl)c1 [Example 80, (2S,3R,4S,5S)-3-tert-butyl-4-[(5-tert-butyl-2-methoxypyridin-3-yl)methoxy]-5-(3-chlorophenyl)-1-{[(propan-2-yl)oxy]carbonyl}pyrrolidine-2-carboxylic acid] | 1000 to 10000 nM | 1000 to 10000 nM | ++ (≥150 and <350) | + (<100)
3 | COc1ncc(N2CCCCC2)cc1CO[C@H]1[C@H](C(C)(C)C)[C@@H](C(=O)O)N(C(=O)OC(C)C)[C@H]1c1ccccc1 [Example 81, (2S,3R,4S,5S)-3-tert-butyl-4-{[2-methoxy-5-(piperidin-1-yl)pyridin-3-yl]methoxy}-5-phenyl-1-{[(propan-2-yl)oxy]carbonyl}pyrrolidine-2-carboxylic acid] | 1000 to 10000 nM | 1000 to 10000 nM | ++ (≥150 and <350) | + (<100)
4 | COc1ncc(N2CCCC2)cc1CO[C@H]1[C@H](C(C)(C)C)[C@@H](C(=O)O)N(C(=O)OC(C)C)[C@H]1c1ccccc1 [Example 82, (2S,3R,4S,5S)-3-tert-butyl-4-{[2-methoxy-5-(pyrrolidin-1-yl)pyridin-3-yl]methoxy}-5-phenyl-1-{[(propan-2-yl)oxy]carbonyl}pyrrolidine-2-carboxylic acid] | 1000 to 10000 nM | 1000 to 10000 nM | ++ (≥150 and <350) | + (<100)
5 | COc1ncc(C(F)(F)F)cc1CO[C@H]1[C@H](C(C)(C)C)[C@@H](C(=O)O)N(C(=O)OC(C)C)[C@H]1c1ccccc1C [Example 83, (2S,3R,4S,5S)-3-tert-butyl-4-{[2-methoxy-5-(trifluoromethyl)pyridin-3-yl]methoxy}-5-(2-methylphenyl)-1-{[(propan-2-yl)oxy]carbonyl}pyrrolidine-2-carboxylic acid] | 1000 to 10000 nM | < 1000 nM | +++ (≥350) | ++ (≥100 and <200)
6 | COc1ncc(N2CC(F)(F)C2)cc1CO[C@H]1[C@H](C(C)(C)C)[C@@H](C(=O)O)N(C(=O)OC(C)C)[C@H]1c1ccccc1 [Example 84, (2S,3R,4S,5S)-3-tert-butyl-4-{[5-(3,3-difluoroazetidin-1-yl)-2-methoxypyridin-3-yl]methoxy}-5-phenyl-1-{[(propan-2-yl)oxy]carbonyl}pyrrolidine-2-carboxylic acid] | 1000 to 10000 nM | 1000 to 10000 nM | ++ (≥150 and <350) | + (<100)
7 | COc1ncc(N2CCC(F)(F)C2)cc1CO[C@H]1[C@H](C(C)(C)C)[C@@H](C(=O)O)N(C(=O)OC(C)C)[C@H]1c1ccccc1 [Example 85, (2S,3R,4S,5S)-3-tert-butyl-4-{[5-(3,3-difluoropyrrolidin-1-yl)-2-methoxypyridin-3-yl]methoxy}-5-phenyl-1-{[(propan-2-yl)oxy]carbonyl}pyrrolidine-2-carboxylic acid] | 1000 to 10000 nM | 1000 to 10000 nM | ++ (≥150 and <350) | + (<100)
8 | COc1ncc(C(F)(F)F)cc1CO[C@H]1[C@H](C(C)(C)C)[C@@H](C(=O)O)N(C(=O)OC(C)C)[C@H]1c1ccccc1Br [Example 86, (2S,3R,4S,5S)-5-(2-bromophenyl)-3-tert-butyl-4-{[2-methoxy-5-(trifluoromethyl)pyridin-3-yl]methoxy}-1-{[(propan-2-yl)oxy]carbonyl}pyrrolidine-2-carboxylic acid] | 1000 to 10000 nM | < 1000 nM | +++ (≥350) | ++ (≥100 and <200)
9 | COc1ncc(C(F)(F)F)cc1CO[C@H]1[C@H](C(C)(C)C)[C@@H](C(=O)O)N(C(=O)OC(C)C)[C@H]1c1ccccc1C(C)C [Example 87, (2S,3R,4S,5S)-3-tert-butyl-4-{[2-methoxy-5-(trifluoromethyl)pyridin-3-yl]methoxy}-1-{[(propan-2-yl)oxy]carbonyl}-5-[2-(propan-2-yl)phenyl]pyrrolidine-2-carboxylic acid] | 1000 to 10000 nM | 1000 to 10000 nM | +++ (≥350) | ++ (≥100 and <200)
10 | COc1ncc(C(F)(F)F)cc1CO[C@H]1[C@H](C(C)(C)C)[C@@H](C(=O)O)N(C(=O)[C@@H]2CCCO2)[C@H]1c1ccccc1 [Example 88, (2S,3R,4S,5S)-3-tert-butyl-4-{[2-methoxy-5-(trifluoromethyl)pyridin-3-yl]methoxy}-1-[(2S)-oxolane-2-carbonyl]-5-phenylpyrrolidine-2-carboxylic acid] | 1000 to 10000 nM | < 1000 nM | +++ (≥350) | ++ (≥100 and <200)
11 | COc1ncc(C(F)(F)F)cc1CO[C@H]1[C@H](C(C)(C)C)[C@@H](C(=O)O)N(C(=O)[C@@H]2CCCCO2)[C@H]1c1ccccc1 [Example 89, (2S,3R,4S,5S)-3-tert-butyl-4-{[2-methoxy-5-(trifluoromethyl)pyridin-3-yl]methoxy}-1-[(2S)-oxane-2-carbonyl]-5-phenylpyrrolidine-2-carboxylic acid] | 1000 to 10000 nM | < 1000 nM | +++ (≥350) | ++ (≥100 and <200)
12 | C=CCOC(=O)N1[C@H](C(=O)O)[C@@H](C(C)(C)C)[C@H](OCc2cc(C(F)(F)F)cnc2OC)[C@@H]1c1ccccc1 [Example 90, (2S,3R,4S,5S)-3-tert-butyl-4-{[2-methoxy-5-(trifluoromethyl)pyridin-3-yl]methoxy}-5-phenyl-1-{[(prop-2-en-1-yl)oxy]carbonyl}pyrrolidine-2-carboxylic acid] | 1000 to 10000 nM | 1000 to 10000 nM | +++ (≥350) | + (<100)
13 | COc1ncc(C(F)(F)F)cc1CO[C@H]1[C@H](C(C)(C)C)[C@@H](C(=O)O)N(C(=O)[C@H]2CCCCO2)[C@H]1c1ccccc1 [Example 91, (2S,3R,4S,5S)-3-tert-butyl-4-{[2-methoxy-5-(trifluoromethyl)pyridin-3-yl]methoxy}-1-[(2R)-oxane-2-carbonyl]-5-phenylpyrrolidine-2-carboxylic acid] | 1000 to 10000 nM | 1000 to 10000 nM | +++ (≥350) | ++ (≥100 and <200)
14 | COc1ncc(C(F)(F)F)cc1CO[C@H]1[C@H](C(C)(C)C)[C@@H](C(=O)O)N(C(=O)OC(C)C)[C@H]1c1ccccc1C1CC1 [Example 92, (2S,3R,4S,5S)-3-tert-butyl-5-(2-cyclopropylphenyl)-4-{[2-methoxy-5-(trifluoromethyl)pyridin-3-yl]methoxy}-1-{[(propan-2-yl)oxy]carbonyl}pyrrolidine-2-carboxylic acid] | 1000 to 10000 nM | 1000 to 10000 nM | +++ (≥350) | ++ (≥100 and <200)
15 | COc1ncc(C2CCC2)cc1CO[C@H]1[C@H](C(C)(C)C)[C@@H](C(=O)O)N(C(=O)OC(C)C)[C@H]1c1ccccc1C(C)C [Example 93, (2S,3R,4S,5S)-3-tert-butyl-4-[(5-cyclobutyl-2-methoxypyridin-3-yl)methoxy]-1-{[(propan-2-yl)oxy]carbonyl}-5-[2-(propan-2-yl)phenyl]pyrrolidine-2-carboxylic acid] | 1000 to 10000 nM | 1000 to 10000 nM | +++ (≥350) | ++ (≥100 and <200)
16 | COc1ccc(C(F)(F)F)cc1CO[C@@H]1[C@H](C(C)(C)C)[C@@H](C(=O)O)N(C(=O)OC(C)C)[C@H]1c1cccnc1OC(C)C [Example 94, (2S,3R,4R,5S)-3-tert-butyl-4-{[2-methoxy-5-(trifluoromethyl)phenyl]methoxy}-1-{[(propan-2-yl)oxy]carbonyl}-5-{2-[(propan-2-yl)oxy]pyridin-3-yl}pyrrolidine-2-carboxylic acid] | > 10000 nM | < 1000 nM | + (<150) | + (<100)
17 | COc1ncc(C2CCC2)cc1CO[C@H]1[C@H](C(C)(C)C)[C@@H](C(=O)O)N(C(=O)OC(C)C)[C@H]1c1cccnc1OC(C)C [Example 95, (2S,3R,4S,5S)-3-tert-butyl-4-[(5-cyclobutyl-2-methoxypyridin-3-yl)methoxy]-1-{[(propan-2-yl)oxy]carbonyl}-5-{2-[(propan-2-yl)oxy]pyridin-3-yl}pyrrolidine-2-carboxylic acid] | 1000 to 10000 nM | < 1000 nM | +++ (≥350) | ++ (≥100 and <200)
